According to PubChem BioAssay (NCI):
“And” between values parts separate entries of the source, which are not always exact repeats. Equal entries are not always repeated.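 Where inhibition never reached the appropriate level, the endpoint shown equals the highest concentration tested. Otherwise, values were interpolated linearly from a five-concentration, 48-hour dose response in 96-well plates. GI50 is the concentration that inhibits growth by half. At the TGI there is no net growth.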

Legend:
Test in all cases: NCI anticancer screen, dose series, 48 h
[1] = tested on: MCF7 breast
[2] = tested on: SW-620 colon
[3] = tested on: HOP-62 NSCLC
[4] = tested on: OVCAR-4 ovarian
[5] = tested on: OVCAR-5 ovarian
[6] = tested on: MOLT-4 leukemia
[7] = tested on: SF-539 CNS
[8] = tested on: BT-549 breast
[9] = tested on: HCT-15 colon
[10] = tested on: SNB-19 CNS
[11] = tested on: HOP-92 NSCLC
[12] = tested on: SF-295 CNS
[13] = tested on: MDA-MB-231 breast
[14] = tested on: HS 578T breast
[15] = tested on: A549 NSCLC
[16] = tested on: M14 melanoma
[17] = tested on: CCRF-CEM leukemia
[18] = tested on: OVCAR-8 ovarian
[19] = tested on: HL-60(TB) leukemia
[20] = tested on: SR leukemia
[21] = tested on: UO-31 renal
[22] = tested on: SK-MEL-28 melanoma
[23] = tested on: T-47D breast
[24] = tested on: RXF 393 renal
[25] = tested on: 786-0 renal
[26] = tested on: TK-10 renal
[27] = tested on: HCT-116 colon
[28] = tested on: IGROV1 ovarian
[29] = tested on: SF-268 CNS
[30] = tested on: SN12C renal
[31] = tested on: HT29 colon
[32] = tested on: OVCAR-3 ovarian
[33] = tested on: MALME-3M melanoma
[34] = tested on: SK-MEL-5 melanoma
[35] = tested on: ACHN renal
[36] = tested on: CAKI-1 renal
[37] = tested on: NCI-H23 lung
[38] = tested on: COLO 205 colon
[39] = tested on: UACC-257 melanoma
[40] = tested on: NCI-H460 lung
[41] = tested on: SK-MEL-2 melanoma
[42] = tested on: UACC-62 melanoma
[43] = tested on: NCI/ADR-RES ovarian
[44] = tested on: K-562 leukemia
[45] = tested on: MDA-N
[46] = tested on: NCI-H226 lung
[47] = tested on: NCI-H522 lung
[48] = tested on: EKVX NSCLC
[49] = tested on: SNB-75 CNS
[50] = tested on: KM12 colon
[51] = tested on: PC-3 prostate
[52] = tested on: DU-145 prostate
[53] = tested on: LOX IMVI melanoma
[54] = tested on: A498 renal
[55] = tested on: MDA-MB-435
[56] = tested on: U251 CNS
[57] = tested on: HCC-2998 colon
[58] = tested on: RPMI-8226 leukemia
[59] = tested on: SK-OV-3 ovarian

SMILES: c1ccc(-c2cccc(-c3ccccn3)n2)nc1
- TGI [1]: > 10 µM
- GI50 [2]: 0.198 µM
- TGI [2]: 4.54 µM and 14 µM
- GI50 [3]: 0.13 µM
- TGI [3]: 1.72 µM and 12.8 µM
- GI50 [4]: 0.0839 µM
- TGI [4]: 3.48 µM and 13.7 µM
- GI50 [5]: 0.403 µM
- TGI [5]: 3.72 µM and 22 µM
- GI50 [6]: 0.0658 µM
- TGI [6]: > 100 µM
- GI50 [7]: 0.243 µM
- TGI [7]: 2.07 µM and 13.3 µM
- GI50 [8]: 0.225 µM
- TGI [8]: 13.6 µM
- GI50 [9]: 0.0546 µM
- TGI [9]: 1.4 µM and 2.98 µM
- GI50 [10]: 0.293 µM
- TGI [10]: > 10 µM and 16.7 µM
- GI50 [11]: 3.57 µM
- TGI [11]: 19.8 µM
- GI50 [12]: 0.0785 µM
- TGI [12]: 0.791 µM and 3.87 µM
- GI50 [13]: 0.086 µM
- TGI [13]: 1.89 µM and 15.2 µM
- GI50 [14]: 2.55 µM
- TGI [14]: > 10 µM and 47.6 µM
- GI50 [15]: 0.225 µM
- TGI [15]: 4.91 µM and 13 µM
- GI50 [16]: 0.0924 µM
- TGI [16]: 0.434 µM and 1.07 µM
- GI50 [17]: 0.058 µM
- TGI [17]: > 100 µM
- GI50 [18]: 0.145 µM
- GI50 [19]: 0.112 µM
- GI50 [20]: 0.06 µM
- GI50 [21]: 0.0373 µM
- TGI [21]: 0.425 µM and 1.29 µM
- GI50 [22]: 0.182 µM
- TGI [22]: 3.25 µM and 15 µM
- GI50 [23]: 0.343 µM
- TGI [23]: > 10 µM and 12.7 µM
- TGI [24]: 1.41 µM and 7.32 µM
- GI50 [25]: 0.113 µM
- TGI [25]: 2.87 µM and 2.03 µM
- GI50 [26]: 0.0595 µM
- TGI [26]: 3 µM and 7.89 µM
- TGI [27]: 1.56 µM
- GI50 [28]: 0.0765 µM
- TGI [28]: 2.97 µM and 11.7 µM
- GI50 [29]: 0.0814 µM
- TGI [29]: > 10 µM and 15.8 µM
- GI50 [30]: 0.22 µM
- TGI [30]: 9.77 µM and 16.2 µM
- GI50 [31]: 0.0848 µM
- TGI [31]: 3.05 µM and 15.7 µM
- GI50 [32]: 0.11 µM
- TGI [33]: 1.11 µM and 3.48 µM
- GI50 [34]: 0.122 µM
- TGI [34]: 0.68 µM and 1.18 µM
- GI50 [35]: 0.0567 µM
- TGI [35]: 1.75 µM and 1.89 µM
- TGI [36]: 1.61 µM
- TGI [37]: > 10 µM and 64.2 µM
- GI50 [38]: 0.0376 µM
- TGI [38]: 1.67 µM and 5.84 µM
- GI50 [39]: 0.337 µM
- TGI [39]: 1.65 µM and 5.46 µM
- GI50 [40]: 0.0604 µM
- TGI [40]: 1.35 µM and 2.51 µM
- GI50 [41]: 0.425 µM
- TGI [41]: 3.64 µM and 18.6 µM
- GI50 [42]: 0.243 µM
- TGI [42]: 2.93 µM and 4.24 µM
- GI50 [43]: 0.161 µM
- TGI [43]: 1.22 µM and 8.76 µM
- TGI [44]: > 100 µM
- TGI [45]: 2.19 µM
- GI50 [46]: 0.275 µM
- TGI [46]: 4.85 µM
- TGI [47]: > 10 µM and 19.3 µM
- GI50 [48]: 0.111 µM
- TGI [48]: 4.89 µM and 10.9 µM
- GI50 [49]: 0.234 µM
- TGI [49]: > 10 µM and 17.7 µM
- GI50 [50]: 0.0751 µM
- TGI [50]: 2.27 µM and 13.7 µM
- GI50 [51]: 0.17 µM
- TGI [51]: 3.76 µM and 15.4 µM
- GI50 [52]: 0.0863 µM
- TGI [52]: 15.6 µM
- GI50 [53]: 0.0573 µM
- TGI [53]: 12.5 µM
- GI50 [54]: 1.38 µM
- TGI [54]: 2.31 µM and 3.27 µM
- TGI [55]: 2.28 µM and 18.4 µM
- GI50 [56]: 0.0901 µM
- TGI [56]: 2.86 µM and 13.4 µM
- GI50 [57]: 0.0944 µM
- TGI [58]: > 10 µM and 95.1 µM
- GI50 [59]: 0.0895 µM
- TGI [59]: 2.05 µM and 2.42 µM
